The results in this text go back to ChEMBL document CHEMBL1130900, “Synthesis and structure-activity relationships of 2-pyridones: II. 8-(Fluoro-substituted pyrrolidinyl)-2-pyridones as antibacterial agents” (Bioorg Med Chem Lett, 1998).

For orientation: ED50 means the midpoint of the dose-response relation. Broadly, the MIC is the lowest concentration found to suppress growth. One may read the bioavailability as the share of a dose that reaches the circulation, judged against a reference dose that is usually intravenous. A higher bioavailability goes with good availability. Usually Cmax stands for the maximum level reached in the sampled fluid or tissue.

≈ marks a conversion by molar mass, not a printed value.

For series [1], the system named is Staphylococcus aureus. As to the kind of experiment: Effective dose against Staphylococcus aureus NCTC-10649M in mice upon peroral administration. It is filed as functional. Conditions: po.
Series [2] concerns Staphylococcus aureus. Briefly: Antibacterial activity against Staphylococcus aureus A1775 was determined. Conditions: Staphylococcus aureus; read-out: MIC. It is filed as functional.
The test system of series [3] is Pseudomonas aeruginosa. Briefly: Antibacterial activity against Pseudomonas aeruginosa A-5007 was determined. As to conditions: Pseudomonas aeruginosa; read-out: MIC. It is filed as functional.
In series [4] the test system is Klebsiella pneumoniae. As to the kind of experiment: Antibacterial activity against Klebsiella pneumoniae ATCC 8045 was determined. It is filed as functional. Conditions: Klebsiella pneumoniae, ATCC 8045; read-out: MIC.
Series [5] concerns DNA gyrase (bacterial). Briefly: Compound was tested for bacterial DNA gyrase activity. As to conditions: Bacteria.
In series [6] the test system is Klebsiella aerogenes. As to the kind of experiment: Antibacterial activity against Enterobacter aerogenes ATCC 13048 was determined. It is filed as functional. As to conditions: Klebsiella aerogenes, ATCC 13048; read-out: MIC.
The test system of series [7] is Escherichia coli. Briefly: Antibacterial activity against Escherichia coli JUHL was determined. It is filed as functional. Conditions: Escherichia coli; read-out: MIC.
Series [8] concerns Staphylococcus aureus. Briefly: Effective dose against Staphylococcus aureus NCTC-10649M in mice upon subcutaneous administration. It is filed as functional. As to conditions: sc.
Series [9] is described as follows: Compound was tested for its effective dose against Escherichia coli JUHL in mice upon peroral administration. It is filed as functional. As to conditions: Mus musculus, po.
Series [10] has as its system Streptococcus pyogenes. Briefly: Antibacterial activity against Streptococcus pyogenes EES61 was determined. It is filed as functional. Conditions: Streptococcus pyogenes; read-out: MIC.
For series [11], the system named is Providencia stuartii. As to the kind of experiment: Antibacterial activity against Gram-negative Providencia Stuartii CMX640 was determined. It is filed as functional. As to conditions: Providencia stuartii; read-out: MIC.
In series [12] the test system is Streptococcus equinus. Briefly: Antibacterial activity against Gram-positive Streptococcus bovis A5169 was determined. It is filed as functional. As to conditions: Streptococcus equinus; read-out: MIC.
Series [13] deals with Staphylococcus aureus. Briefly: Antibacterial activity against Staphylococcus aureus NCTC-10649M was determined. It is filed as functional. As to conditions: Staphylococcus aureus; read-out: MIC.
The subject of series [14] is Escherichia coli. As to the kind of experiment: Effective dose against Escherichia coli JUHL in mice upon subcutaneous administration. It is filed as functional. As to conditions: sc.
In series [15] the test system is Enterococcus faecium. Briefly: Antibacterial activity against Enterococcus faecium ATCC 8043 was determined. It is filed as functional. As to conditions: Enterococcus faecium, ATCC 8043; read-out: MIC.
A short description of series [16]: Oral bioavailability in rat (dose 5 mg/kg). It is filed as ADME, organism-based. Conditions: in vivo.
Series [17] in a line: Compound was evaluated for maximal plasma concentration in rat upon 5 mg/kg upon oral administration. It is filed as ADME, organism-based. Also on record: dose 5 mg/kg, route oral.
In series [18] the test system is Mus musculus. As to the kind of experiment: Compound was tested for its effective dose against Staphylococcus aureus NCTC-10649M in mice upon peroral administration; Mice were infected with 1000xLD50. It is filed as functional. Conditions: po.
Series [19] concerns Mus musculus. Briefly: Compound was tested for its effective dose against Staphylococcus aureus NCTC-10649M in mice upon subcutaneous administration. It is filed as functional. Conditions: sc.
Series [20] relates to Mus musculus. Briefly: Compound was tested for its effective dose against Staphylococcus aureus NCTC-10649M in mice upon peroral administration. It is filed as functional. Conditions: po.

As for `Cc1c(N2CC[C@H](N)C2)c(F)cn2c(=O)c(C(=O)O)cc(C3CC3)c12` [ABT-719], the ED50 in [1] is 3.4 mg/kg/day; in series [8], 0.6 mg/kg/day; in series [9] it was 0.6 mg/kg/day; in series [14], 0.1 mg/kg/day. In addition, the MIC in series [2] stood at 0.78 µg/mL (≈ 2.26 µM); in [3], 0.5 µg/mL (≈ 1.45 µM); in [4] it was 0.005 µg/mL (≈ 0.0145 µM); in series [6] it was 0.005 µg/mL (≈ 0.0145 µM); in series [7] it was 0.002 µg/mL (≈ 0.00579 µM); in series [10] it was 0.02 µg/mL (≈ 0.0579 µM). The MIC in series [11] was found to be 0.2 µg/mL (≈ 0.579 µM); in series [12], 0.02 µg/mL (≈ 0.0579 µM); in [13], 0.1 µg/mL (≈ 0.29 µM); in [15] it was 0.02 µg/mL (≈ 0.0579 µM). This molecule had a CC50 in [5] of 0.03 µg/mL (≈ 0.0869 µM).

For the molecule `Cc1c(N2CCC(F)C2)c(F)cn2c(=O)c(C(=O)O)cc(C3CC3)c12` (stereo not given), the ED50 in series [1] is greater than 50 mg/kg/day; in series [8], greater than 12 mg/kg/day. In addition, the MIC in series [2] came to 1.56 µg/mL (≈ 4.48 µM); in series [3], 1.56 µg/mL (≈ 4.48 µM); in series [4] it was 0.1 µg/mL (≈ 0.287 µM); in [6] it was 0.39 µg/mL (≈ 1.12 µM); in [7], 0.1 µg/mL (≈ 0.287 µM); in series [10] it was 0.1 µg/mL (≈ 0.287 µM). In addition, the MIC was 0.78 µg/mL (≈ 2.24 µM) in series [11], 0.1 µg/mL (≈ 0.287 µM) in series [12], 0.02 µg/mL (≈ 0.0574 µM) in series [13] and 0.05 µg/mL (≈ 0.144 µM) in series [15]. The bioavailability in [16] amounted to 13%. In addition, the CC50 in series [5] is 0.6 µg/mL (≈ 1.72 µM). Also, the Cmax in series [17] came out at 350 ng/mL.

As to `Cc1c(N2CC[C@H]([C@@H](N)C(F)(F)F)C2)c(F)cn2c(=O)c(C(=O)O)cc(C3CC3)c12`, the ED50 in series [1] was 25 mg/kg/day; in [8] it was 11.9 mg/kg/day; in [9] it was greater than 10 mg/kg/day; in series [14], greater than 4 mg/kg/day. Also, the MIC amounted to 0.39 µg/mL (≈ 0.912 µM) in series [2]; 6.2 µg/mL (≈ 14.5 µM) in series [3]; 0.2 µg/mL (≈ 0.468 µM) in [4]; 0.78 µg/mL (≈ 1.82 µM) in series [6]; 0.2 µg/mL (≈ 0.468 µM) in [7]; 0.2 µg/mL (≈ 0.468 µM) in [10]. The MIC is 3.1 µg/mL (≈ 7.25 µM) in [11], 0.2 µg/mL (≈ 0.468 µM) in series [12], 0.005 µg/mL (≈ 0.0117 µM) in [13] and 0.1 µg/mL (≈ 0.234 µM) in series [15]. Also, the bioavailability in series [16] came out at 57%. Moreover, the highest level in series [17] (Cmax) was 800 ng/mL.

As to `Cc1c(N2C[C@@H](N)[C@@H](F)C2)c(F)cn2c(=O)c(C(=O)O)cc(C3CC3)c12`, the MIC in series [2] turned out to be 1.56 µg/mL (≈ 4.29 µM); in [3], 0.39 µg/mL (≈ 1.07 µM); in [4], 0.05 µg/mL (≈ 0.138 µM); in series [6], 0.05 µg/mL (≈ 0.138 µM); in series [7], 0.02 µg/mL (≈ 0.055 µM); in [10] it was 0.1 µg/mL (≈ 0.275 µM). In addition, the MIC in series [11] was 0.78 µg/mL (≈ 2.15 µM); in series [12], 0.2 µg/mL (≈ 0.55 µM); in series [13], 0.02 µg/mL (≈ 0.055 µM); in series [15] it was 0.1 µg/mL (≈ 0.275 µM). Moreover, the median effective dose (ED50) in [18] was found to be 7.7 mg/kg/day; in series [8], 1.5 mg/kg/day; in series [9], 7.4 mg/kg/day; in [14], 1.8 mg/kg/day. For the same molecule, the bioavailability in series [16] worked out at 34%. Further, the Cmax in [17] was determined as 900 ng/mL.

As for `Cc1c(N2CCC(N)(CF)C2)c(F)cn2c(=O)c(C(=O)O)cc(C3CC3)c12` (stereo not given), the median effective dose (ED50) in series [1] is 10.3 mg/kg/day; in [8], 2.7 mg/kg/day; in series [9], 15.1 mg/kg/day; in series [14], 4.3 mg/kg/day. Besides, the minimum inhibitory concentration (MIC) in series [2] was 0.78 µg/mL (≈ 2.07 µM); in series [3] it was 0.39 µg/mL (≈ 1.03 µM); in [4], 0.01 µg/mL (≈ 0.0265 µM); in series [6], 0.1 µg/mL (≈ 0.265 µM); in series [7], 0.02 µg/mL (≈ 0.053 µM); in [10], 0.1 µg/mL (≈ 0.265 µM). Moreover, the MIC in series [11] turned out to be 0.39 µg/mL (≈ 1.03 µM); in series [12], 0.2 µg/mL (≈ 0.53 µM); in [13] it was 0.02 µg/mL (≈ 0.053 µM); in [15], 0.1 µg/mL (≈ 0.265 µM). This molecule also returned a bioavailability in series [16] of 63%. This molecule registered a Cmax in series [17] of 600 ng/mL.

For the molecule `O=C(O)c1cn(C2CC2)c2cc(N3CCNCC3)c(F)cc2c1=O` [CIPROFLOXACIN], the MIC in [2] is greater than 100 µg/mL; in [3], 0.2 µg/mL (≈ 0.604 µM); in series [4] it was 0.02 µg/mL (≈ 0.0604 µM); in series [6], 0.02 µg/mL (≈ 0.0604 µM); in series [11], 1.56 µg/mL (≈ 4.71 µM); in series [12], 0.78 µg/mL (≈ 2.35 µM). The MIC in series [13] amounted to 0.39 µg/mL (≈ 1.18 µM); in series [15], 0.78 µg/mL (≈ 2.35 µM). In addition, the ED50 was determined as 4.1 mg/kg/day in series [19], 28.2 mg/kg/day in series [20], 1 mg/kg/day in [9] and 0.1 mg/kg/day in [14].
